Consider one compound from publication PMC6273807, “Identification of Selective ERRγ Inverse Agonists” (Molecules, 2016).

The target of one series is CYP2D6 (Homo sapiens, UniProt P10635). The experiment in a line: CYP inhibition assay, cocktail, human liver microsomes (dextromethorphan O-demethylase). The series is classed as in vitro ADME. The following applies: 10 μM, activity in presence of inhibitor as % of control. A general note: Microsomes from liver hold many membrane-bound enzymes, among them those of drug oxidation.

The target of the next series is CYP2C19 (Homo sapiens, UniProt P33261). The experiment in a line: CYP inhibition assay, cocktail, human liver microsomes (S-mephenytoin 4-hydroxylase). Format: in vitro ADME. The following applies: 10 μM, activity in presence of inhibitor as % of control.
The target in another series is T1, CYP1A2 (Homo sapiens, UniProt P05177).
T1 sequence (P05177 1-516): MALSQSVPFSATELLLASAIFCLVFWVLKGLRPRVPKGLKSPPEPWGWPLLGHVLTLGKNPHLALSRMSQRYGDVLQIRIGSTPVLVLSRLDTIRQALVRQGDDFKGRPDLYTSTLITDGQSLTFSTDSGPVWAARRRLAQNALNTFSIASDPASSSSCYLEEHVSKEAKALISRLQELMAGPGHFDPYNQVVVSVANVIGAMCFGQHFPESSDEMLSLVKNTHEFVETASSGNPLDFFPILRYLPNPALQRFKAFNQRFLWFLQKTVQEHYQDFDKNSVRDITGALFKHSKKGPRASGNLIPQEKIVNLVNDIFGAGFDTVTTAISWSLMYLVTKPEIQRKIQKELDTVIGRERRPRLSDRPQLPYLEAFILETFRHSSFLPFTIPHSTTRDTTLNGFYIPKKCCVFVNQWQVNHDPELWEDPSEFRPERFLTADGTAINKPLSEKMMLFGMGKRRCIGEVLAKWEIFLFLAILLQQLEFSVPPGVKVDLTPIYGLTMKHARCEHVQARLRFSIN
The experiment in a line: CYP inhibition assay, cocktail, human liver microsomes (phenacetin O-deethylase). Format: in vitro ADME. The following applies: 10 μM, activity in presence of inhibitor as % of control.

Series [1] addresses T2, ERRγ (Homo sapiens, UniProt P62508).
T2 sequence (P62508 233-458 limits assumed): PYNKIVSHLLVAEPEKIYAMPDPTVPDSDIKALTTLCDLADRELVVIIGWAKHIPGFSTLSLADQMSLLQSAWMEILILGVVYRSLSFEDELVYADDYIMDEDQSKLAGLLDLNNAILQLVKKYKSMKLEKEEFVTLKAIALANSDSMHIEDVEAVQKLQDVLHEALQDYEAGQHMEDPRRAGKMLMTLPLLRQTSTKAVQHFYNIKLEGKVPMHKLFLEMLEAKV
The experiment in a line: ERRγ functional assay: GAL4-ERRγ luciferase reporter gene in AD293 cells. Format: cell-based. On the procedure:
Along with the binding assay campaign, functional activity was determined in order to validate the utility of the binding affinity in a cellular context as described in the Experimental.
Figure 2 Cell based reporter-gene assay screening of 16 analogs ERRγ binding activity in cell was measured by luciferase activity using co-transfection system with GAL4-ERRγ and pFR-luciferase reporter gene.
AD293 cells were cultured in Dulbecco’ modified Eagle medium (DMEM) High glucose supplemented with 0.5% FBS (Hyclone, Logan, UT, USA). After 24 h, culture media was changed with DMEM High glucose containing 10% FBS. DNA constructs, which includes pCMX-Gal4-ERRγ, pFR-luciferase reporter plasmid, pCMV-β-gal were transiently transfected into AD293 cells using TransIT-LT1 transfection reagent (Mirus, Madison, WI, USA) for 24 h. Then, transfected cells were treated with compounds for 24 h and harvested for detection of luciferase activity and β-gal activity. All cells were incubated at 37 °C under 5% CO2 in a humidified incubator [5].
(In general: In a reporter assay the amount or activity of a reporter protein is the signal.)

The target in a further series is hERG channel (Homo sapiens, UniProt Q12809). The experiment in a line: hERG channel binding assay (predictor hERG fluorescence polarization).
The target in series [2] is T3, ERRγ (Homo sapiens, UniProt P62508).
T3 construct: purchased Life Technologies
T3 sequence (P62508 233-457 limits assumed): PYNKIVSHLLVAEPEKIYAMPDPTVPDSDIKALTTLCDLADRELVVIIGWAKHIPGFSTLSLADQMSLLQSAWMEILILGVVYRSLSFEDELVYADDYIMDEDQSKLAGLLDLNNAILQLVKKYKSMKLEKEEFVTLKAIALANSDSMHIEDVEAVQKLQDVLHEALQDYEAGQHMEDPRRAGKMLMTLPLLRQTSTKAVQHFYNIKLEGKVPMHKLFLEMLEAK
The experiment in a line: TR-FRET (LanthaScreen) ERRγ binding assay. The following applies: Table 1 screening; 2-fold serial dilution from 10 μM; read-out: ERRγ, IC50 (binding inhibition of ERRγ binding activity). As for the experimental part:
Initials creening was conducted using a well established TR-FRET based ERRγ binding assay as described in the Experimental section at a concentration of 10 μM. Serial dilutions of the synthesized compounds were used to calculate IC50 values for the binding affinity with ERRγ.
(§1) ERRγ binding assay was conducted with Lantascreen assay system (Life Technologies, Grand Island, NY, USA), which was based on TR-FRET, followed by manufacturer’s instruction. Briefly, compounds were serially diluted with 2-fold staring from 10 μM and 10 μL of each diluent was added in 384 well plate. Then, GST-conjugated ERRγ LBD (ligand-binding domain) was added to be 5 nM. Next, the mixture of fluorescien-conjugated coactivator PGC1a (final concentration to be 500 nM) and Tb-a-GST antibody (final concentration to be 5 nM) was added. The reaction mixture was incubated at rt in dark state for 1 h.
A general note: Time-resolved FRET reads energy transfer from a long-lived donor to a nearby acceptor.

The subject of another series is CYP3A. The experiment in a line: CYP inhibition assay, cocktail, human liver microsomes (midazolam 1'-hydroxylase). Format: in vitro ADME. As to conditions: 10 μM, activity in presence of inhibitor as % of control.
The target of the next series is T4, ERRβ (Homo sapiens, UniProt O95718).
T4 construct: purchased Life Technologies
T4 sequence (O95718 208-432 limits assumed): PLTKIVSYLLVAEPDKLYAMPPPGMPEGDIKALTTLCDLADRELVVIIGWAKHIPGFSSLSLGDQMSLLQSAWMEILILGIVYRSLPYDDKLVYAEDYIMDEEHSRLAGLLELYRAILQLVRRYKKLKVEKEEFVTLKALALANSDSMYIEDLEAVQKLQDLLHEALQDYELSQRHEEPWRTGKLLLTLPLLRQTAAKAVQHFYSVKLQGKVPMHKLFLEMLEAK
The experiment in a line: TR-FRET (LanthaScreen) ERRβ binding assay. The following applies: maximum concentration tested 10 μM. On the procedure:
as §1
(§2) ERRs and ERα binding assay used same assay system as ERRγ’s, Lanthascreen assay system. Therefore, procedure was same as ERRγ binding assay except tested enzymes (ERRα, ERRβ, ERα). Used reference compounds were 4-OHT 1 for ERα and ERRβ binding assay, and XCT790 for ERRα binding assay.

A further series concerns the target T5, ERRα (Homo sapiens, UniProt P11474).
T5 construct: purchased Life Technologies
T5 sequence (P11474 193-421 limits assumed): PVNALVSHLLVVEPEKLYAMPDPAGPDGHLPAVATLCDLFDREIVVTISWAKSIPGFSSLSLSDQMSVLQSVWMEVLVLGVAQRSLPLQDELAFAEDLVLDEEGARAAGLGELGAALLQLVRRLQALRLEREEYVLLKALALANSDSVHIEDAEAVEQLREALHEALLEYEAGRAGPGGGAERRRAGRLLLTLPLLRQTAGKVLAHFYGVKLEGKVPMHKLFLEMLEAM
The experiment in a line: TR-FRET (LanthaScreen) ERRα binding assay. The following applies: maximum concentration tested 10 μM. On the procedure: as §1, §2

For the next series, the target named is T6, ERα (Homo sapiens, UniProt P03372).
T6 construct: purchased Life Technologies
T6 sequence (P03372 311-547 limits assumed): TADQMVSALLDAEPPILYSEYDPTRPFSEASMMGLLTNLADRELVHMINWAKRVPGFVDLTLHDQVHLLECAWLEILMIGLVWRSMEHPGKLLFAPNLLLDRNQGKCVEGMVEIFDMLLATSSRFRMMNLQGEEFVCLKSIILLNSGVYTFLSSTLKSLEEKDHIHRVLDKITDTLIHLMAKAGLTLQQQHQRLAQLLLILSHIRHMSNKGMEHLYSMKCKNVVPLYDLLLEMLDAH
The experiment in a line: TR-FRET (LanthaScreen) ERα binding assay. The following applies: maximum concentration tested 10 μM. On the procedure: as §1, §2

In the next series the target is CYP2C9 (Homo sapiens, UniProt P11712). The experiment in a line: CYP inhibition assay, cocktail, human liver microsomes (tolbutamide 4-hydroxylase). The series is classed as in vitro ADME.
Chain of CYP2C9 (P11712 whole entry): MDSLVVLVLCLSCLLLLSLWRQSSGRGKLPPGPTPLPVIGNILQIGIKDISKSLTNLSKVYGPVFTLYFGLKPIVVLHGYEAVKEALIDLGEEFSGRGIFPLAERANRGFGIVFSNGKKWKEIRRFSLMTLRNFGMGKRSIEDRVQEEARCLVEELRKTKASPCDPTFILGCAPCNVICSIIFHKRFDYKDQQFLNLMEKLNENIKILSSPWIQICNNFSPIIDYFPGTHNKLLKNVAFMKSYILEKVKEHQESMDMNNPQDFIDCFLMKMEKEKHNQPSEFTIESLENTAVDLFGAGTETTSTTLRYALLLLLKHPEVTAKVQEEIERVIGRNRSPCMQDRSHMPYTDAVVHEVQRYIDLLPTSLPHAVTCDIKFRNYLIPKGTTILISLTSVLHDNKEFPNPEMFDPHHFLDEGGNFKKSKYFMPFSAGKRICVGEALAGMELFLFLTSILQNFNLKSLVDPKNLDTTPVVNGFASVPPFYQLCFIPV

Chain of hERG channel (Q12809 whole entry): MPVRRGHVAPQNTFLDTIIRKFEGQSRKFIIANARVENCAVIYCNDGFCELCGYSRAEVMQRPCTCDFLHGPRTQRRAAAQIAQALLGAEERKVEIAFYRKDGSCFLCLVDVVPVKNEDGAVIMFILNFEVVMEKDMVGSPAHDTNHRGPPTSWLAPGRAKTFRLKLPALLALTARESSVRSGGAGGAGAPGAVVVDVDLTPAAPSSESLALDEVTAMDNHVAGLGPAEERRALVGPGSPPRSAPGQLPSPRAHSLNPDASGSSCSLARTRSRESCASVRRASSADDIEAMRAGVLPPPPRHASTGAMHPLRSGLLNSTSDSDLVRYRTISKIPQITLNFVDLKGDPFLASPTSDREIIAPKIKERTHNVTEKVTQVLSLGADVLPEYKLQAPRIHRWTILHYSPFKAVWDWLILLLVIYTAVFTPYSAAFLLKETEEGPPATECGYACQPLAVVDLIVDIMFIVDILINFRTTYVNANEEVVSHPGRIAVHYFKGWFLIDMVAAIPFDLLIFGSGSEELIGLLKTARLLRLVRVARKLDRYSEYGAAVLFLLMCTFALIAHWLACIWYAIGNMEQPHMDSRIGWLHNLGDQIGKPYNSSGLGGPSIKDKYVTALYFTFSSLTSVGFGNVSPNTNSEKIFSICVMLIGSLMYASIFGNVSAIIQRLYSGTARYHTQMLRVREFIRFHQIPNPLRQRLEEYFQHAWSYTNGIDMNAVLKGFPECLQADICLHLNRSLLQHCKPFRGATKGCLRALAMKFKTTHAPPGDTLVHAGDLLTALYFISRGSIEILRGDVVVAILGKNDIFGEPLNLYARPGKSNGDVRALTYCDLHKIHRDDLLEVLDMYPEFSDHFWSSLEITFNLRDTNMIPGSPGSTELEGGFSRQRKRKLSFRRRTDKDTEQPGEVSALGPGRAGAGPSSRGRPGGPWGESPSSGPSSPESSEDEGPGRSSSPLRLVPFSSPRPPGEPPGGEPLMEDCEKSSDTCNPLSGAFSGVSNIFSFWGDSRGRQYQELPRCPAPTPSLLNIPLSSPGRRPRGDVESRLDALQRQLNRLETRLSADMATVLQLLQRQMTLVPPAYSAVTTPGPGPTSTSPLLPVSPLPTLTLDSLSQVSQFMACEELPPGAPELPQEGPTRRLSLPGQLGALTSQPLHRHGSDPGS
Chain of CYP2C19 (P33261 whole entry): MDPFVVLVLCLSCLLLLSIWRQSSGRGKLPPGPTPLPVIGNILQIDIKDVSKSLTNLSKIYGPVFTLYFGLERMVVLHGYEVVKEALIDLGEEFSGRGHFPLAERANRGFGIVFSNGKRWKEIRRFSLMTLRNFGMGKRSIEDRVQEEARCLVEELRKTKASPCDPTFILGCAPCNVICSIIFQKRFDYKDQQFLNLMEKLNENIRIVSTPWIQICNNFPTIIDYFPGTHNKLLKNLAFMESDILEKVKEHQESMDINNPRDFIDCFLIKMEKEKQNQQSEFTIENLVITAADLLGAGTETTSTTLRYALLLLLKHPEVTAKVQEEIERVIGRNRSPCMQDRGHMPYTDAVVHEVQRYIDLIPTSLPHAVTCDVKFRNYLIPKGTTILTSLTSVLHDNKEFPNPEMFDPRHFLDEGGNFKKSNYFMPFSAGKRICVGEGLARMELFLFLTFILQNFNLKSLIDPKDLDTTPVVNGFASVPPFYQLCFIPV
Chain of CYP2D6 (P10635 whole entry): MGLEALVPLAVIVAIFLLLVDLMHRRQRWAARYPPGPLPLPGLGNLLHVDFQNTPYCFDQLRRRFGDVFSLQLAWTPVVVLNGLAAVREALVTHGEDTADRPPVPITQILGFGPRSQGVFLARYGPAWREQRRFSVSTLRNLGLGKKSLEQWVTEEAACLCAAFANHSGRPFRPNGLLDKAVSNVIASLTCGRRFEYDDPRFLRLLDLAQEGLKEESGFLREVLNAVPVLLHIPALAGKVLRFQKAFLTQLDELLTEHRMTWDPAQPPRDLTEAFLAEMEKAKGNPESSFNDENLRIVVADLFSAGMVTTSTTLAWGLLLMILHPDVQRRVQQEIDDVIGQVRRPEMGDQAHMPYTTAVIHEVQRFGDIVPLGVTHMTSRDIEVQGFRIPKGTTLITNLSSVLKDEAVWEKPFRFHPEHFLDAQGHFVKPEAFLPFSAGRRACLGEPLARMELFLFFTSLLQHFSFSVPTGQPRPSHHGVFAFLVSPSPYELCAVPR
Protocol for hERG channel: hERG channel binding assay was performed using predictor hERG fluorescence polarization assay (Cat.No. PV5365, Invitrogen, Grand Island, NY, USA) according to the manufacturer’s instructions. […] Fluorescence intensity (Excitation at 530 nm, Emission at 590 nm) was measured using a multi-mode microplate reader Synergy Neo (Biotek, Winooski, VT, USA).

A word on the IC50: it is the concentration at which inhibition is half-maximal. Consider `CN(C)CCOc1ccc(/C(=C(/CCCO)c2ccc3cnn(C)c3c2)c2ccc(O)cc2)cc1` [Compound 15g, (Z)-4-(1-(4-(2-(Dimethylamino)ethoxy)phenyl)-5-hydroxy-2-(1-methyl-1H-indazol-6-yl)pent-1-en-1-yl)phenol], for which, on CYP2D6, the “CYP Inhibition (% of Control), 2D6” value was 99 % of Control. Also, the “CYP Inhibition (% of Control), 2C19” value at CYP2C19 is 95 % of Control. Also, the “CYP Inhibition (% of Control), 1A2” value on CYP1A2 is >100 % of Control. Further, the “ERRγ Functional Assay at 10 μM (% of Control)” value at ERRγ [1] (10 μM, AD293 cells, 24 h treatment, luciferase activity) is listed as 5.4 % of Control. For the same compound, the “ERRγ functional activity in the cellular system (in words)” value on ERRγ [1] (10 μM, reporter-gene assay, compared with control ligand 4) is reported as “comparable regression of the ERRγ transcriptional activity”. The inhibition at 10 µM on ERRγ [1] (AD293, 24 h, screening concentration of 10 μM, read-out: transcriptional repression) stood at 95%. For the same compound, the IC50 on hERG channel is over 30 µM; on ERRγ [2] it was 0.44 µM; at ERRβ, over 10 µM; on ERRα, over 10 µM; at ERα, over 10 µM. In the series with CYP3A, the “CYP Inhibition (% of Control), 3A4” value is recorded as 88 % of Control. Moreover, the “Binding Assay, IC50, ERRβ” value at ERRβ is “no observable affinity”. On ERRα, the “Binding Assay, IC50, ERRα” value is on record as “no observable affinity”. Besides, at CYP2C9 (10 μM, human liver microsomes, activity in presence of inhibitor as % of control), the “CYP Inhibition (% of Control), 2C9” value is 83 % of Control. The “inhibition of the CYP 2C9 subtype” value on CYP2C9 (at a concentration of 10 μM) was found to be 17%.
